Experimental findings from US7037502B2, “Peptide with the amino acid sequence of KVLDGQDP having anti-inflammatory properties” (priority 2001, dated 2006) are described below.

The test system of experiment [1] is eosinophil infiltration of conjunctiva. The experiment in a line: Allergic conjunctivitis to ragweed in guinea pig: histology, eosinophil count in conjunctiva. The note with it: for Anti-inflammatory activity, overall conclusion in words: allergic conjunctivitis model in guinea pig, summary of Example 2; for Statistical evaluation of eosinophil count (Mann-Whitney test), P compared to Dexamethasone / Statistical evaluation of eosinophil count (Mann-Whitney test), P compared to Livostine / Statistical evaluation of eosinophil count (Mann-Whitney test), P compared to No treatment group: eosinophils in three fields of conjunctiva (×400), 12 eyes per group, eye drops. In kind it is in vivo, Hartley female guinea pig. As to the method:
The peptides of the present invention were analyzed in experimental model of allergic conjunctivitis to ragweed (giant ragweed; Ambrosia trifida) in guinea pig. Hartley strain of guinea pig was selected according to previous reports of conjunctival anaphylaxis (Calonge M., et al., Acta Ophthalmol 68; 470–476, 1990) and females were chosen based on the sex dimorphism of ocular mucosal immunity with the protective role of male hormones (Saruya S., et al., Act Soc Ophthalmol Jap 72; 833–845, 1968). The conjunctival redness and edema are main signs of seasonal allergic conjunctivitis and eosionphil infiltration is the hallmark of the conjunctival histology in patients with allergic conjunctivitis (Abelson M B., et al., Arch Ophthalmol. 101; 555–556, 1983; Butrus S I., et al., Int. Ophthalmol. Clin. 28; 324–328, 1988)
86 Hartley female guinea pigs, 200–250 g were housed in the animal facilities of the Asan Institute for Life Sciences (Korea), given guinea pig chow and water ad libitum, and cared for in accordance with the Declaration of Helsinki and the National Institute of Health Guide to the Care and Use of the Laboratory Animals (Korea).
On day 15, immunized guinea pigs were divided 14 groups, 6 for each group. 11 anti-inflammatory peptides including new recombinants, dexamethasone eye drop (Maxidex, 0.1% dexamethasone, Alcon) and anti-histamine eye drop (Livostin, levocabastine, Janssen) were used for 13 groups, and no treatment for one group. Normal controls were employed as 6 non-immunized and non-treated guinea pigs. […] All the procedures were followed experimental model of allergic conjunctivitis described by Merayo-Lloves et al (Experimental model of allergic conjunctivitis to ragweed in guinea pig. Curr. Eye Res. 14; 487–494, 1995).
Anti-inflammatory peptides were resolved in sterile saline (100 μmol/40 μl concentration). All peptides and dexamethasone eye solutions were challenged 3 hour prior to the last pollen application on day 15, 10 minutes after pollen application, and 4 times thereafter at the 3 hour interval.
The orbits were excentrated after the animals were killed with CO2 asphyxia, and specimens were prepared for light microscopic examination. Sectioned specimens were stained with hematoxylin-eosin.
Eosinophils in the standardized fields of conjunctival epithelium, the immediate subepithelial, and the stroma were counted in three non-consecutive fields (magnification ×400) for each treatment in each experiment (12 eyes in each group).

The target in another experiment is T1, PLA2 activated by TGase (Cavia cutleri, UniProt P08587).
T1 construct: pre-incubated with 0.001 Unit TGase (Guinea pig liver, Sigma); purchased Sigma
T1 sequence (P08587 2-690 limits assumed): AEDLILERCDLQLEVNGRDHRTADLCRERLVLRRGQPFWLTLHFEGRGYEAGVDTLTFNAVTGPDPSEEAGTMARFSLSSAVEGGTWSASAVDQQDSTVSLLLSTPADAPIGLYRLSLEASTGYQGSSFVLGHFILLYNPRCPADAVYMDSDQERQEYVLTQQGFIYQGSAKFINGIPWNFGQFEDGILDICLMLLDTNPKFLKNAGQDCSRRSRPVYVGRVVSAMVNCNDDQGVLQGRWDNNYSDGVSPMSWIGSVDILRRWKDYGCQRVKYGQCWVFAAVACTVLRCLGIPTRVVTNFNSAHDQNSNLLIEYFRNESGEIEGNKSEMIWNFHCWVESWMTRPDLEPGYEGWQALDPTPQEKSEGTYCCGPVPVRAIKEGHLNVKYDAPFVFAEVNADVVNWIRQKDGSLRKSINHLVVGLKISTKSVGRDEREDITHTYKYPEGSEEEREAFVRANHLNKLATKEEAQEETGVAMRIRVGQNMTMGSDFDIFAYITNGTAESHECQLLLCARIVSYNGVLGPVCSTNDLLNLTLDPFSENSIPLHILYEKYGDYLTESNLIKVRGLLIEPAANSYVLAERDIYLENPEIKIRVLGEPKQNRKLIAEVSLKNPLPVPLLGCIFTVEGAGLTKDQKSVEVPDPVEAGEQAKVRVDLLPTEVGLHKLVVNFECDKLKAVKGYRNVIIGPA
Nature of the experiment: Inhibitory effect of synthetic peptides on PLA2 activated by TGase in vitro. The experiment is classed as biochemical, Bovine. The following applies: peptides 1×10^−8 M, preincubated with 0.001 Unit TGase 15 min at 37° C. As to the method: A series of synthetic peptides (1×10^−8 M) were pre-incubated with 0.001 Unit TGase (Guinea pig liver, Sigma) in […] of assay buffer (75 mM Tris-Cl, pH 9.0, 5 mM CaCl2, 1 mg/ml fatty acid free bovine serum albumin) for 15 min at 37° C. We employed a negative control as assay buffer without TGase, and a positive control as TGase without peptides. After pre-incubation, […] of 1-acyl-2-[1-^14C] arachidonic acid-glycerophospho -ethanolamine (about 2×10^5 dpm) was added in pre-incubated mixture, and incubated for 1 hr at 37° C. The reaction was terminated by adding 0.75 ml of Dole's reagent, and followed the same procedure described as above.
For inhibitory test of the peptides given, each value is the mean of data from three separate experiments (S.D.<10%). The increased PLA2 activity by TGase was determined as 100% that was 11.22 pmole arachidonyl/hr. % Inhibition was shown in FIG. 3.

Entries after “also recorded” stand apart in the source; their conditions may differ. Marks after values point to notes of the source that are not given here.

Take “KVLDGQDP [Peptide R2, synthetic peptide of the invention]”: in experiment [1] (listed as SEQ ID NO:2), the “Anti-inflammatory activity, overall conclusion in words” value is given as “excellent anti-inflammatory activity in comparison with other known peptide sequences; also recorded: much higher activity than the steroidal anti-inflammatory dexamethasone”. Also, in experiment [1], the “Statistical evaluation of eosinophil count (Mann-Whitney test), P compared to Dexamethasone” value was 0.001*; the “Statistical evaluation of eosinophil count (Mann-Whitney test), P compared to Livostine” value is given as 0.002*; the “Statistical evaluation of eosinophil count (Mann-Whitney test), P compared to No treatment group” value was found to be 0.000. In addition, in experiment [1] (n=12, P<0.01, SD<10%, Mann-Whitney test, listed as SEQ ID NO:2), the “Histological signs (eosinophil infiltration), result in words” value is given as “statistically significant difference from other groups; also recorded: the most effective”. For the same sequence, in the experiment with PLA2 activated by TGase, the “PLA2 activity activated by TGase (FIG. 3), result in words” value is “significantly reduced”.
Consider “KVLDPVKG [Peptide R1, synthetic peptide of the invention]”, for which, in experiment [1], the “Anti-inflammatory activity, overall conclusion in words” value is recorded as “excellent anti-inflammatory activity in comparison with other known peptide sequences”; the “Statistical evaluation of eosinophil count (Mann-Whitney test), P compared to Dexamethasone” value was found to be 0.001; the “Statistical evaluation of eosinophil count (Mann-Whitney test), P compared to Livostine” value stood at 0.002; the “Statistical evaluation of eosinophil count (Mann-Whitney test), P compared to No treatment group” value is given as 0.002. The “PLA2 activity activated by TGase (FIG. 3), result in words” value with PLA2 activated by TGase is reported as “significantly reduced”.
